# Assay results from US5763430A, “Method of treating a viral infection by administering a steroid compound” (priority 1995, dated 1998).
# Like-named read-outs stand apart in the source and are kept apart here.
# Assays:
# S. aureus = assay: antibiotic activity (MIC); assay type: cell-based; details: Staphylococcus aureus
# Source text: (§1) Thus, it is possible to achieve an antimicrobial steroid with or without squalamine-like pharmacological activity.
# C. albicans = assay: antibiotic activity (MIC); assay type: cell-based; details: Candida albicans
# Source text: as §1
# E. coli = assay: antibiotic activity (MIC); assay type: cell-based; details: Escherichia coli
# Source text: as §1
# P. aerug = assay: antibiotic activity (MIC); assay type: cell-based
# Source text: as §1
# [1] = system: stage 59-60 Xenopus tadpole; assay: Xenopus tadpole assay; details: in vivo
# [2] = system: human microvascular cells; assay: inhibition of endothelial cell cord formation in vitro; assay type: cell-based; as to effect on endothelial cord formation: key: +: Inhibition of angiogenesis; -: No inhibition of angiogenesis; Toxic; *: cell rounding @ 10 µg/ml
# Source text: Endothelial cells have the capacity in vitro to form tubular aggregates resembling capillaries in various early stages of formation. This conversion occurs under relatively specific conditions, in which essential growth factors along with an effective substratum are provided. It has been shown that both the interaction of growth factors with the endothelial cell and its attachment to a substratum activate the NHE. The activation of this exchanger is believed to be required for subsequent morphologic transformation of the endothelial cell into a multicellular tubular structure.
# To assess the effect of compounds on the cord-like structures formed by human microvascular cells when plated in the presence of VEGF (Vascular Endothelial Growth Factor) and basic fibroblast growth factor on a collagen matrix, a standard cord formation assay was used.
SMILES,"MIC (S. aureus; S. aureus, read-out: MIC) [µg/mL]","MIC (C. albicans; C. albicans, read-out: MIC) [µg/mL]","MIC (E. coli; E. coli, read-out: MIC) [µg/mL]","MIC (P. aerug; P. aerug, read-out: MIC) [µg/mL]",also measured
CC(C)CCC[C@@H](C)[C@H]1CC[C@H]2[C@@H]3CC[C@H]4C[C@@H](NCCCNCCCCN)CC[C@]4(C)[C@H]3CC[C@]12C [Compound 303],8,256,128 to 256,128,
CC(C)CCC[C@@H](C)[C@H]1CC[C@H]2[C@@H]3CC[C@H]4C[C@H](NCCCNCCCCN)CC[C@]4(C)[C@H]3CC[C@]12C [Compound 304],2 to 4,128,128,128,
C[C@H](CCC(=O)O)[C@H]1CC[C@H]2[C@@H]3CC[C@H]4C[C@H](NCCCNCCCCN)CC[C@]4(C)[C@H]3CC[C@]12C [Compound 318],128,> 256,32,64,
CC(C)CCC[C@@H](C)[C@H]1CC[C@H]2[C@@H]3CC[C@H]4C[C@H](NCCCNCCCCNCCCN)CC[C@]4(C)[C@H]3CC[C@]12C [Compound 354],8,16 to 32,64 to 128,64,
COC(=O)CC[C@@H](C)[C@H]1CC[C@H]2[C@@H]3[C@H](O)C[C@@H]4C[C@@H](NCCCNCCCCN)CC[C@]4(C)[C@H]3CC[C@]12C [Compound 355],64,256,256,> 256,
COC(=O)CC[C@@H](C)[C@H]1CC[C@H]2[C@@H]3[C@H](O)C[C@@H]4C[C@H](NCCCNCCCCN)CC[C@]4(C)[C@H]3CC[C@]12C [Compound 356],4,64,32 to 64,64,
CC(C)CCC[C@@H](C)[C@H]1CC[C@H]2[C@@H]3[C@H](O)C[C@H]4C[C@H](NCCCNCCCCN)CC[C@]4(C)[C@H]3CC[C@]12C [Compound 370],4,2,32,64,similarity of pharmacologic activity in tadpole assay [1]: pharmacologic activity similar to that seen for FX 3
CC(C)CCC[C@@H](C)[C@H]1CC[C@H]2[C@@H]3[C@H](O)C[C@H]4C[C@@H](NCCCNCCCCN)CC[C@]4(C)[C@H]3CC[C@]12C [Compound 371],4,2,64,64,similarity of pharmacologic activity in tadpole assay [1]: effects like those produced by compound 1436
COC(=O)CC[C@@H](C)[C@H]1CC[C@H]2[C@@H]3[C@H](O)C[C@H]4C[C@@H](NCCCNCCCCN)CC[C@]4(C)[C@H]3CC[C@]12C [Compound 380],4 to 8,32,32,64,
C[C@H](CCC(=O)O)[C@H]1CC[C@H]2[C@@H]3[C@H](O)C[C@H]4C[C@@H](NCCCNCCCCN)CC[C@]4(C)[C@H]3CC[C@]12C [Compound 381],32,128,64,32,
C[C@H](CCC(=O)O)[C@H]1CC[C@H]2[C@@H]3[C@H](O)C[C@H]4C[C@H](NCCCNCCCCN)CC[C@]4(C)[C@H]3CC[C@]12C [Compound 382],16,32,64,32,
"CC(C)C(O)CC[C@@H](C)[C@H]1CC[C@H]2[C@@H]3[C@H](O)C[C@H]4C[C@H](NCCCNCCCCN)CC[C@]4(C)[C@H]3CC[C@]12C (stereo partly drawn) [Compound 387, 3α-(1,5,10-Triazadecyl) cholestan-7α,24.xi.-diol]",16 to 32,64,128,256,
"CC(C)C(CC[C@@H](C)[C@H]1CC[C@H]2[C@@H]3[C@H](O)C[C@H]4C[C@H](NCCCNCCCCN)CC[C@]4(C)[C@H]3CC[C@]12C)OS(=O)(=O)O (stereo partly shown) [Compound 388, 3-Episqualamine]",2 to 4,16,4 to 8,16,
CC(C)CCC[C@@H](C)[C@H]1CC[C@H]2[C@@H]3CC[C@H]4C[C@H](NCCCN5CCCCN=C5N)CC[C@]4(C)[C@H]3CC[C@]12C [Compound 393],,32,,> 256,MIC (S. aureus): 3 µg/mL; MIC (E. coli): > 256 µg/mL
COC(=O)CC[C@@H](C)[C@H]1CC[C@H]2[C@@H]3[C@H](O)C[C@H]4C[C@H](NCCCNCCCCN)CC[C@]4(C)[C@H]3CC[C@]12C [Compound 394],4,32,64,64,
COC(=O)CC[C@@H](C)[C@H]1CC[C@H]2[C@@H]3[C@H](O)C[C@H]4CC(NCCCNCCCCNCCCN)CC[C@]4(C)[C@H]3CC[C@]12C (stereo partly shown) [Compound 395],4,64,32,64,

SMILES,"MIC (S. aureus; S. aureus, read-out: MIC) [µg/mL]","MIC (C. albicans; C. albicans, read-out: MIC) [µg/mL]","MIC (E. coli; E. coli, read-out: MIC) [µg/mL]","MIC (P. aerug; P. aerug, read-out: MIC) [µg/mL]",also measured
COC(=O)CC[C@@H](C)[C@H]1CC[C@H]2[C@@H]3[C@H](O)C[C@H]4C[C@@H](NCCCNCCCCNCCCN)CC[C@]4(C)[C@H]3CC[C@]12C [Compound 396],2 to 4,16,64,128,
C[C@H](CCC(=O)O)[C@H]1CC[C@H]2[C@@H]3[C@H](O)C[C@H]4C[C@@H](NCCCNCCCCNCCCN)CC[C@]4(C)[C@H]3CC[C@]12C [Compound 397],16,32,32 to 64,16,
COC(=O)CC[C@@H](C)[C@H]1CC[C@H]2[C@@H]3[C@H](O)C[C@@H]4C[C@@H](NCCN)CC[C@]4(C)[C@H]3CC[C@]12C [Compound 409],32,16,64,128,similarity of pharmacologic activity in tadpole assay [1]: functionally similar to compound 1437
COC(=O)CC[C@@H](C)[C@H]1CC[C@H]2[C@@H]3[C@H](O)C[C@@H]4C[C@@H](NCCCNCCCCNCCCN)CC[C@]4(C)[C@H]3CC[C@]12C [Compound 411],8,2,64,64,"effect on endothelial cord formation ([2]; 0.1 μg/ml): -; effect on endothelial cord formation ([2]; 1.0 μg/ml): -; effect on endothelial cord formation ([2]; 10.0 μg/ml): +; minimal effective concentration ([2]; Homo sapiens, Endothelial cell, Table II, read-out: Minimum Effective Concentration, Cord Formation): 10 µg/mL"
C[C@H](CCC(=O)O)[C@H]1CC[C@H]2[C@@H]3[C@H](O)C[C@@H]4C[C@H](NCCN)CC[C@]4(C)[C@H]3CC[C@]12C [Compound 414],32,64,64,64,similarity of pharmacologic activity in tadpole assay [1]: potencies comparable to that of Fraction 1
COC(=O)CC[C@@H](C)[C@H]1CC[C@H]2[C@@H]3CC[C@@H]4C[C@H](NCCN)CC[C@]4(C)[C@H]3C[C@H](O)[C@]12C [Compound 416],8,32,8,16 to 32,similarity of pharmacologic activity in tadpole assay [1]: functionally similar to compound 1437
C[C@H](CCC(=O)O)[C@H]1CC[C@H]2[C@@H]3CC[C@@H]4C[C@H](NCCN)CC[C@]4(C)[C@H]3C[C@H](O)[C@]12C [Compound 417],16 to 32,32,64,128,
COC(=O)CC[C@@H](C)[C@H]1CC[C@H]2[C@@H]3C[C@@H](O)[C@H]4C[C@H](NCCN)CC[C@]4(C)[C@H]3CC[C@]12C [Compound 431],16,8,32 to 64,128,similarity of pharmacologic activity in tadpole assay [1]: functionally similar to compound 1437
COC(=O)CC[C@@H](C)[C@H]1CC[C@H]2[C@@H]3CC[C@@H]4C[C@H](NCCCNCCCCNCCCN)CC[C@]4(C)[C@H]3C[C@H](O)[C@]12C [Compound 448],2,8,16,8,
C[C@H](CCC(=O)O)[C@H]1CC[C@H]2[C@@H]3CC[C@@H]4C[C@H](NCCCNCCCCNCCCN)CC[C@]4(C)[C@H]3C[C@H](O)[C@]12C [Compound 449],4,4,8 to 16,4,effect on endothelial cord formation ([2]; 1.0 μg/ml): -
C[C@H](CCC(=O)O)[C@H]1CC[C@H]2[C@@H]3C[C@@H](O)[C@H]4C[C@@H](NCCCNCCCCNCCCN)CC[C@]4(C)[C@H]3CC[C@]12C [Compound 467],16,4,16,8,effect on endothelial cord formation ([2]; 1.0 μg/ml): -; effect on endothelial cord formation ([2]; 10.0 μg/ml): -
C=C(C)C(=O)CC[C@@H](C)[C@H]1CC[C@H]2[C@@H]3[C@H](O)C[C@H]4C[C@@H](NCCCNCCCCN)CC[C@]4(C)[C@H]3CC[C@]12C [Compound 1361],4,4,32,128,
CC(C)CCC[C@@H](C)[C@H]1CC[C@H]2[C@@H]3[C@H](O)C[C@H]4C[C@@H](N)CC[C@]4(C)[C@H]3CC[C@]12C [Compound 1364],2,2,> 256,> 256,
"CO[C@@H]1[C@H](OC(=O)/C=C/C=C/C=C/C=C/C(=O)O)CC[C@]2(CO2)[C@H]1[C@@]1(C)O[C@@H]1CC=C(C)C [Fumagillin, reference compound]",,,,,effect on endothelial cord formation ([2]; 0.1 μg/ml): -; effect on endothelial cord formation ([2]; 10.0 μg/ml): +
CC(C)C(O)CC[C@@H](C)[C@H]1CC[C@H]2[C@@H]3[C@H](O)C[C@H]4C[C@@H](NCCCNCCCCN)CC[C@]4(C)[C@H]3CC[C@]12C (stereo partly shown) [MSI-1232],4 to 16,64,32,128,
CC(C)C(O)CC[C@@H](C)[C@H]1CC[C@H]2[C@@H]3[C@H](O)C[C@H]4C[C@@H](NCCCNCCCCN(C)C)CC[C@]4(C)[C@H]3CC[C@]12C (stereo partly shown) [MSI-1239A],8 to 16,,64,,MIC (C. albicans): 64 µg/mL; MIC (P. aerug): 128 µg/mL
